Tests used:
human recombinant BACE1 = human recombinant BACE1 (Homo sapiens (Human), UniProt P56817); test: In vitro enzymatic BACE1 FRET assay; assay type: biochemical; conditions: read-out: IC50 IP (μM) BACE1 enzyme
How it was run: (§1)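 FRET cleavage assay using Ni-NTA-purified recombinant protease and 50 nM quenched peptide substrate, 1 h. Stopped by neutralising with Tris; fluorescence at 488/590 nm.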

human recombinant BACE2 = human recombinant BACE2 (Homo sapiens (Human), UniProt Q9Y5Z0); test: In vitro enzymatic BACE2 FRET assay; assay type: biochemical; conditions: read-out: IC50 IP (μM) BACE2 enzyme
Sequence of human recombinant BACE2 (Q9Y5Z0 63-518): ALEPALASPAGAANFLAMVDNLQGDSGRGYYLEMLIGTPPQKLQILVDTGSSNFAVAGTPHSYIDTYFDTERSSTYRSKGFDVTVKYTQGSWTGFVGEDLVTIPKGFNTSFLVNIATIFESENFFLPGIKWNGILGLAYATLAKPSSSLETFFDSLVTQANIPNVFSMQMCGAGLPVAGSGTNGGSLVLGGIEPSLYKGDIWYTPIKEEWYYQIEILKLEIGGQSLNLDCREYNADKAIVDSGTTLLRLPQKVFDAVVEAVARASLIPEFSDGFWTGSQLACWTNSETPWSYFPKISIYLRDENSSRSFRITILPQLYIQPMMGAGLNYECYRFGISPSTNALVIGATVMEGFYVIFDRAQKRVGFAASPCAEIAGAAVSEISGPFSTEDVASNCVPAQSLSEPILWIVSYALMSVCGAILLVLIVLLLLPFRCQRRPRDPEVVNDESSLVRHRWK
How it was run: as §1

[1] = tested on: Aβ40 in conditioned medium of cells stably expressing Amyloid Precursor Protein (APP); test: In vitro BACE-1 cell-based assay (Aβ40 sandwich ELISA); conditions: read-out: IC50 IP (μM) BACE1 cell
How it was run: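 APP-stable cells, pre-cultured 24 h at 37° C in DMEM/10% FBS, were treated 24 h with compound in a 10-point series starting at 100 μM or 10 μM (0.1% DMSO final). Secreted Aβ40 in conditioned medium was measured by pAb40/biotin-6E10 sandwich ELISA with Europium time-resolved fluorescence; IC50 from percent inhibition versus concentration.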

Recombinant Cat D = Recombinant Cat D (Homo sapiens (Human), UniProt P07339); test: In vitro enzymatic Cathepsin D (Cat D) FRET assay; assay type: biochemical; conditions: read-out: IC50 IP (μM) CatD
Sequence of Recombinant Cat D (P07339 65-412): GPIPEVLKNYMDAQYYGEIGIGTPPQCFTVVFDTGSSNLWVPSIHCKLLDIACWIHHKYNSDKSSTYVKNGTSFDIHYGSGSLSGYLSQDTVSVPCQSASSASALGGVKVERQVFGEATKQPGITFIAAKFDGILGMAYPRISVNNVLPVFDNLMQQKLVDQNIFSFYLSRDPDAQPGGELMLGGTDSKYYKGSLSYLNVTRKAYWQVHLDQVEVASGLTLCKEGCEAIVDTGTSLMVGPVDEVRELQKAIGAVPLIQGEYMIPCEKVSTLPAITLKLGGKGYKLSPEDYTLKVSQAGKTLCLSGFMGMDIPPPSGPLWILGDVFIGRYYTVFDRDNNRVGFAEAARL
How it was run: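 Recombinant Cat D expressed in CHO cells, assayed in 0.05 M citrate pH 3.5 with 5 mM CHAPS and 10% DMSO final. Reaction started with 20 nM FRET peptide substrate, incubated one hour, then stopped by Tris buffer to neutral pH; fluorescence read at ex 500/em 580 nm.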

Sequence of human recombinant BACE1 (P56817 46-501): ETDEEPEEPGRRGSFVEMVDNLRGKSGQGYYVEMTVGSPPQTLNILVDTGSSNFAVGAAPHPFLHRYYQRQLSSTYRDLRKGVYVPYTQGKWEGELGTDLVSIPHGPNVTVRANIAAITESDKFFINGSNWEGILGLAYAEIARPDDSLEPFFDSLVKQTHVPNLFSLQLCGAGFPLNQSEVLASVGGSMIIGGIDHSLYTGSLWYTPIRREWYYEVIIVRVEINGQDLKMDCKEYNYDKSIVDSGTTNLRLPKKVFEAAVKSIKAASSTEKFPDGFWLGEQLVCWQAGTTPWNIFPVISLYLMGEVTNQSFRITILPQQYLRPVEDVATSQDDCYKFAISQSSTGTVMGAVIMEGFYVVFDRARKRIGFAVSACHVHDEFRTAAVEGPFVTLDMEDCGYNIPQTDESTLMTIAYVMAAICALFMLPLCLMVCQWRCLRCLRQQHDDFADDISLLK

SMILES | IC50 (human recombinant BACE1) | IC50 (human recombinant BACE2) | IC50 [1] | IC50 (Recombinant Cat D)
C#CCOc1cnc(C(=O)Nc2cnc(F)c([C@@]3(C)N=C(N)S[C@@]4(CF)C[C@H]43)c2)c(C)n1 [Example 603, N-(5-((1S,5S,6S)-3-amino-1-(fluoromethyl)-5-methyl-2-thia-4-azabicyclo[4.1.0]hept-3-en-5-yl)-6-fluoro-3-pyridinyl)-3-methyl-5-(2-propyn-1-yloxy)-2-pyrazinecarboxamide] | 0.0016 µM | 0.0132 µM | 0.0037 µM | 336 µM
C[C@]1(c2cc(Nc3nccc4cc(C#N)cnc34)cnc2F)N=C(N)S[C@@]2(CF)C[C@H]21 [Example 604, 8-((5-((1S,5S,6S)-3-amino-1-(fluoromethyl)-5-methyl-2-thia-4-azabicyclo[4.1.0]hept-3-en-5-yl)-6-fluoro-3-pyridinyl)amino)-1,7-naphthyridine-3-carbonitrile] | 0.00624 µM | 0.00378 µM | 0.00933 µM | 571 µM
C[C@]1(c2cc(Nc3ncnc4cc(OCc5ncco5)cnc34)cnc2F)N=C(N)S[C@@]2(CF)C[C@H]21 [Example 605, N-(5-((1S,5S,6S)-3-amino-1-(fluoromethyl)-5-methyl-2-thia-4-azabicyclo[4.1.0]hept-3-en-5-yl)-6-fluoro-3-pyridinyl)-7-(1,3-oxazol-2-ylmethoxy)pyrido[3,2-d]pyrimidin-4-amine] | 0.00178 µM | 0.114 µM | 0.00149 µM | 1290 µM
C#CCOc1cnc(C(=O)Nc2cnc(F)c([C@@]3(C)N=C(N)S[C@@]4(CF)C[C@H]43)c2)cn1 [Example 606, N-(5-((1S,5S,6S)-3-amino-1-(fluoromethyl)-5-methyl-2-thia-4-azabicyclo[4.1.0]hept-3-en-5-yl)-6-fluoropyridin-3-yl)-5-(prop-2-yn-1-yloxy)pyrazine-2-carboxamide] | 0.00032 µM | 0.00931 µM | 0.000849 µM | 278 µM
C[C@]1(c2cc(NC(=O)c3cnc(OCc4ncco4)cn3)cnc2F)N=C(N)S[C@@]2(CF)C[C@H]21 [Example 607, N-(5-((1S,5S,6S)-3-amino-1-(fluoromethyl)-5-methyl-2-thia-4-azabicyclo[4.1.0]hept-3-en-5-yl)-6-fluoro-3-pyridinyl)-5-(1,3-oxazol-2-ylmethoxy)-2-pyrazinecarboxamide] | 0.000975 µM | 0.0237 µM | 0.000956 µM | > 400 µM
C[C@]1(c2cc(Nc3ncnc4cc(OCc5ncco5)cnc34)cnc2F)N=C(N)S[C@@]2(CC#N)C[C@H]21 [Example 608, ((1R,5S,6S)-3-amino-5-(2-fluoro-5-((7-(1,3-oxazol-2-ylmethoxy)pyrido[3,2-d]pyrimidin-4-yl)amino)-3-pyridinyl)-5-methyl-2-thia-4-azabicyclo[4.1.0]hept-3-en-1-yl)acetonitrile] | 0.00285 µM | 0.154 µM | 0.00174 µM | > 400 µM
C[C@]1(c2cc(NC(=O)c3ccc(OCC(F)(F)C(F)F)cn3)cnc2F)N=C(N)S[C@@]2(CF)C[C@H]21 [Example 609, N-(5-((1S,5S,6S)-3-amino-1-(fluoromethyl)-5-methyl-2-thia-4-azabicyclo[4.1.0]hept-3-en-5-yl)-6-fluoro-3-pyridinyl)-5-(2,2,3,3-tetrafluoropropoxy)-2-pyridinecarboxamide] | 0.00344 µM | 0.466 µM | 0.0194 µM | > 400 µM
C[C@]1(c2cc(NC(=O)c3cnc(OCC(F)(F)C(F)F)cn3)cnc2F)N=C(N)S[C@@]2(CF)C[C@H]21 [Example 610, N-(5-((1S,5S,6S)-3-amino-1-(fluoromethyl)-5-methyl-2-thia-4-azabicyclo[4.1.0]hept-3-en-5-yl)-6-fluoro-3-pyridinyl)-5-(2,2,3,3-tetrafluoropropoxy)-2-pyrazinecarboxamide] | 0.00178 µM | 0.193 µM | 0.00597 µM | > 400 µM
C#CCOc1cnc2c(Nc3cnc(OC)c([C@@]4(C)N=C(N)S[C@@]5(CF)C[C@H]54)c3)nccc2n1 [Example 611, N-(5-((1S,5S,6S)-3-amino-1-(fluoromethyl)-5-methyl-2-thia-4-azabicyclo[4.1.0]hept-3-en-5-yl)-6-methoxy-3-pyridinyl)-2-(2-propyn-1-yloxy)pyrido[3,4-b]pyrazin-5-amine] | 0.00663 µM | 0.208 µM | 0.00649 µM | > 400 µM
[2H]C([2H])([2H])C#CC([2H])([2H])Oc1cnc2c(Nc3cnc(F)c([C@@]4(C)N=C(N)S[C@@]5(CF)C[C@H]54)c3)nccc2n1 [Example 613, N-(5-((1S,5S,6S)-3-amino-1-(fluoromethyl)-5-methyl-2-thia-4-azabicyclo[4.1.0]hept-3-en-5-yl)-6-fluoro-3-pyridinyl)-2-((~2~H_5_)-2-butyn-1-yloxy)pyrido[3,4-b]pyrazin-5-amine] | 0.000555 µM | 0.0123 µM | 0.00098 µM | 709 µM
Cc1nc(OCC(F)(F)F)cnc1C(=O)Nc1cc(F)c(F)c([C@@]2(C)N=C(N)S[C@@]3(CF)C[C@H]32)c1 [Example 614, N-(3-((1S,5S,6S)-3-amino-1-(fluoromethyl)-5-methyl-2-thia-4-azabicyclo[4.1.0]hept-3-en-5-yl)-4,5-difluorophenyl)-3-methyl-5-(2,2,2-trifluoroethoxy)-2-pyrazinecarboxamide] | 0.00361 µM | 0.101 µM | 0.0755 µM | 340 µM
Cc1nc(OCC(F)(F)F)cnc1C(=O)Nc1cc(F)c(F)c([C@@]2(C)N=C(N)S[C@@]3(C(F)F)C[C@@H]23)c1 [Example 615, N-(3-((1S,5S,6S)-3-amino-1-(difluoromethyl)-5-methyl-2-thia-4-azabicyclo[4.1.0]hept-3-en-5-yl)-4,5-difluorophenyl)-3-methyl-5-(2,2,2-trifluoroethoxy)-2-pyrazinecarboxamide] | 0.00273 µM | 0.117 µM | 0.0788 µM | 102 µM
C#C[C@H](C)Oc1cnc(C(=O)Nc2cc(F)c(F)c([C@@]3(C)N=C(N)S[C@@]4(C(F)F)C[C@@H]34)c2)c(C)n1 [Example 617, N-(3-((1S,5S,6S)-3-amino-1-(difluoromethyl)-5-methyl-2-thia-4-azabicyclo[4.1.0]hept-3-en-5-yl)-4,5-difluorophenyl)-3-methyl-5-(((1S)-1-methyl-2-propyn-1-yl)oxy)-2-pyrazinecarboxamide] | 0.00357 µM | 0.158 µM | 0.0652 µM | > 400 µM
COC[C@]12C[C@H]1[C@@](C)(c1cc(NC(=O)c3ncc(OCC(F)(F)F)nc3C)cc(F)c1F)N=C(N)S2 [Example 618, N-(3-((1S,5S,6S)-3-amino-1-(methoxymethyl)-5-methyl-2-thia-4-azabicyclo[4.1.0]hept-3-en-5-yl)-4,5-difluorophenyl)-3-methyl-5-(2,2,2-trifluoroethoxy)-2-pyrazinecarboxamide] | 0.00606 µM | 0.0161 µM | 0.0557 µM | 1020 µM
C#C[C@H](C)Oc1cnc(C(=O)Nc2ccc(F)c([C@@]3(C)N=C(N)S[C@@]4(C(F)F)C[C@@H]34)c2)c(C)n1 [Example 619, N-(3-((1S,5S,6S)-3-amino-1-(difluoromethyl)-5-methyl-2-thia-4-azabicyclo[4.1.0]hept-3-en-5-yl)-4-fluorophenyl)-3-methyl-5-(((1S)-1-methyl-2-propyn-1-yl)oxy)-2-pyrazinecarboxamide] | 0.00439 µM | 0.175 µM | 0.0352 µM | 655 µM
COC[C@]12C[C@H]1[C@@](C)(c1cc(NC(=O)c3ncc(OCC(F)(F)F)nc3C)ccc1F)N=C(N)S2 [Example 620, N-(3-((1S,5S,6S)-3-amino-1-(methoxymethyl)-5-methyl-2-thia-4-azabicyclo[4.1.0]hept-3-en-5-yl)-4-fluorophenyl)-3-methyl-5-(2,2,2-trifluoroethoxy)-2-pyrazinecarboxamide] | 0.00832 µM | 0.245 µM | 0.0437 µM | > 400 µM
C#C[C@H](C)Oc1cnc(C(=O)Nc2ccc(F)c([C@@]3(C)N=C(N)S[C@@]4(COC)C[C@H]43)c2)c(C)n1 [Example 621, N-(3-((1S,5S,6S)-3-amino-1-(methoxymethyl)-5-methyl-2-thia-4-azabicyclo[4.1.0]hept-3-en-5-yl)-4-fluorophenyl)-3-methyl-5-(((1S)-1-methyl-2-propyn-1-yl)oxy)-2-pyrazinecarboxamide] | 0.0113 µM | 0.148 µM | 0.0197 µM | 710 µM
Cc1nc(OCC(F)(F)F)cnc1C(=O)Nc1ccc(F)c([C@@]2(C)N=C(N)S[C@@]3(C(F)F)C[C@@H]23)c1 [Example 623, N-(3-((1S,5S,6S)-3-amino-1-(difluoromethyl)-5-methyl-2-thia-4-azabicyclo[4.1.0]hept-3-en-5-yl)-4-fluorophenyl)-3-methyl-5-(2,2,2-trifluoroethoxy)-2-pyrazinecarboxamide] | 0.00575 µM | 0.0485 µM | 0.0671 µM | 641 µM

Reference: patent US20160046618A1, “Cyclopropyl Fused Thiazin-2-Amine Compounds as Beta-Secretase Inhibitors and Methods of Use” (AMGEN INC., priority 2014, published 2016)
